Source: PubChem BioAssay (NCI)
Several values for one entry are separate records, joined by “and”; a condition that tells them apart may be missing. Identical values can stand only once.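 1) Cells in 96-well plates. 2) Compound, 48 h, 5 concentrations. 3) Linear interpolation between surrounding doses. 4) Unreached endpoint = highest concentration. GI50 is the concentration that inhibits growth by half. TGI is the concentration that stops growth completely.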

Columns and labels:
Assay in all cases: inhibition of tumour cell growth, NCI panel, 48 h
[1] = test system: MDA-MB-468 breast
[2] = test system: UACC-257 melanoma
[3] = test system: A498 renal
[4] = test system: SF-295 CNS
[5] = test system: SK-MEL-5 melanoma
[6] = test system: HCC-2998 colon
[7] = test system: A549 NSCLC
[8] = test system: MDA-MB-435
[9] = test system: HCT-15 colon
[10] = test system: SR leukemia
[11] = test system: CCRF-CEM leukemia
[12] = test system: UACC-62 melanoma
[13] = test system: NCI-H226 lung
[14] = test system: OVCAR-5 ovarian
[15] = test system: SN12C renal
[16] = test system: RXF 393 renal
[17] = test system: NCI/ADR-RES ovarian
[18] = test system: LOX IMVI melanoma
[19] = test system: NCI-H23 lung
[20] = test system: OVCAR-3 ovarian
[21] = test system: OVCAR-4 ovarian
[22] = test system: CAKI-1 renal
[23] = test system: KM12 colon
[24] = test system: ACHN renal
[25] = test system: EKVX NSCLC
[26] = test system: T-47D breast
[27] = test system: PC-3 prostate
[28] = test system: MOLT-4 leukemia
[29] = test system: COLO 205 colon
[30] = test system: RPMI-8226 leukemia
[31] = test system: NCI-H460 lung
[32] = test system: HOP-62 NSCLC
[33] = test system: SW-620 colon
[34] = test system: DU-145 prostate
[35] = test system: HCT-116 colon
[36] = test system: MALME-3M melanoma
[37] = test system: U251 CNS
[38] = test system: IGROV1 ovarian
[39] = test system: 786-0 renal
[40] = test system: MCF7 breast
[41] = test system: SK-OV-3 ovarian
[42] = test system: NCI-H522 lung
[43] = test system: BT-549 breast
[44] = test system: M14 melanoma
[45] = test system: OVCAR-8 ovarian
[46] = test system: SF-268 CNS
[47] = test system: HOP-92 NSCLC
[48] = test system: HT29 colon
[49] = test system: SF-539 CNS
[50] = test system: HL-60(TB) leukemia
[51] = test system: TK-10 renal
[52] = test system: SNB-19 CNS
[53] = test system: HS 578T breast
[54] = test system: SK-MEL-28 melanoma
[55] = test system: K-562 leukemia

In the case of `C=CC(=O)Nc1cccc(Nc2nc(Nc3ccc(N4CCN(C(C)=O)CC4)cc3OC)ncc2C(F)(F)F)c1`, the GI50 [1] is reported as 0.288 µM and 0.266 µM and the TGI [1] is reported as 1.98 µM and 1.62 µM.

For `O=S1(=O)C=C(c2ccccc2)C(c2ccccc2)=C1`, the GI50 [1] was 1.14 µM and the TGI [1] was 2.46 µM.

For `NC(N)=NC(N)=NCc1ccco1`, the GI50 [1] was 158 µM and 36.8 µM and the TGI [1] was 500 µM.

In the case of `O=C(Nc1nc2ccc([N+](=O)[O-])cc2s1)Nc1ccccc1F`, the GI50 [2] is reported as 6.08 µM, the TGI [2] is reported as 36.9 µM and the GI50 [3] is reported as 4.88 µM. For the same compound, the TGI [3] was 36.7 µM, the GI50 [4] was 11.4 µM and the TGI [4] was 32.1 µM. For the same compound, the GI50 [5] was 2.64 µM, the TGI [5] was 7.35 µM and the GI50 [6] was 7.58 µM. The TGI [6] was 34.1 µM, the GI50 [7] was 7.4 µM and the TGI [7] was 28.5 µM. For the same compound, the GI50 [8] was 5.46 µM, the TGI [8] was over 100 µM and the GI50 [9] was 4.93 µM. The TGI [9] was 33.9 µM, the GI50 [10] was 3.31 µM and the TGI [10] was 17.4 µM. It also gave a GI50 [11] of 5.42 µM, a TGI [11] of 47.9 µM and a GI50 [12] of 3.77 µM. The TGI [12] was over 100 µM, the GI50 [13] was 13.4 µM and the TGI [13] was over 100 µM. The GI50 [14] was 22 µM, the TGI [14] was 80.8 µM and the GI50 [15] was 4.65 µM. The TGI [15] was 62.3 µM, the GI50 [1] was 3.2 µM and the TGI [1] was 19.2 µM. For the same compound, the GI50 [16] was 13.3 µM, the TGI [16] was 47.3 µM and the GI50 [17] was 7.98 µM. The TGI [17] was 32.4 µM, the GI50 [18] was 10.7 µM and the TGI [18] was 58.8 µM. It also gave a GI50 [19] of 3.6 µM, a TGI [19] of 21.6 µM and a GI50 [20] of 3.99 µM. For the same compound, the TGI [20] was 46.6 µM, the GI50 [21] was 5.21 µM and the TGI [21] was over 100 µM. For the same compound, the GI50 [22] was 5.32 µM, the TGI [22] was 73.2 µM and the GI50 [23] was 5.33 µM. For the same compound, the TGI [23] was 52.8 µM, the GI50 [24] was 8.13 µM and the TGI [24] was 95.7 µM. It also gave a GI50 [25] of 4.37 µM, a TGI [25] of 55.5 µM and a GI50 [26] of 3.06 µM. For the same compound, the TGI [26] was 22.7 µM, the GI50 [27] was 6.83 µM and the TGI [27] was 51 µM. For the same compound, the GI50 [28] was 3.77 µM, the TGI [28] was 15.5 µM and the GI50 [29] was 15.1 µM. It also gave a TGI [29] of 30.4 µM, a GI50 [30] of 3.45 µM and a TGI [30] of 16.5 µM. It also gave a GI50 [31] of 4.66 µM, a TGI [31] of 26.5 µM and a GI50 [32] of 17.2 µM. The TGI [32] was 56.3 µM, the GI50 [33] was 12.2 µM and the TGI [33] was over 100 µM. For the same compound, the GI50 [34] was 7.11 µM, the TGI [34] was over 100 µM and the GI50 [35] was 9.97 µM. The TGI [35] was 39.8 µM, the GI50 [36] was 4.17 µM and the TGI [36] was 30.9 µM. For the same compound, the GI50 [37] was 7.41 µM, the TGI [37] was 35.7 µM and the GI50 [38] was 4.57 µM. It also gave a TGI [38] of over 100 µM, a GI50 [39] of 17.7 µM and a TGI [39] of over 100 µM. For the same compound, the GI50 [40] was 5.68 µM, the TGI [40] was 35.3 µM and the GI50 [41] was 5.9 µM. The TGI [41] was 46.1 µM, the GI50 [42] was 3.49 µM and the TGI [42] was 22.6 µM. For the same compound, the GI50 [43] was 11.9 µM, the TGI [43] was 46.5 µM and the GI50 [44] was 19.1 µM. It also gave a TGI [44] of over 100 µM, a GI50 [45] of 15.8 µM and a TGI [45] of 50.4 µM. It also gave a GI50 [46] of 8.41 µM, a TGI [46] of over 100 µM and a GI50 [47] of 2.83 µM. The TGI [47] was 8.28 µM, the GI50 [48] was 23.6 µM and the TGI [48] was over 100 µM. The GI50 [49] was 8.33 µM, the TGI [49] was 26.9 µM and the GI50 [50] was 4.31 µM. For the same compound, the TGI [50] was 22 µM, the GI50 [51] was 8.78 µM and the TGI [51] was 83 µM. For the same compound, the GI50 [52] was 6.35 µM, the TGI [52] was over 100 µM and the GI50 [53] was 5.89 µM. For the same compound, the TGI [53] was 59 µM, the GI50 [54] was 5.79 µM and the TGI [54] was 83.8 µM. It also gave a GI50 [55] of 4.99 µM and a TGI [55] of 25 µM.
